Experimental data published in patent US10556883B2, “Benzenesulfonamide compounds, method for synthesizing same, and use thereof in medicine and cosmetics” (GALDERMA RESEARCH & DEVELOPMENT, priority 2016, dated 2020).

Test system: TNFα secretion from LPS stimulated frozen Peripheral Blood Mononuclear Cells (PBMC)
Experiment: inhibition of TNFα secretion from LPS stimulated human PBMC (hPBMC assay)
Assay type: cell-based
Settings: LPS 1 μg/mL, overnight incubation, TNFα by HTRF
Protocol: Activity of the compounds was investigated using human peripheral blood mononuclear cells (hPBMC). This assay was designed to measure the inhibition of the TNFα secretion from LPS stimulated frozen Peripheral Blood Mononuclear Cells (PBMC) isolated from human blood. TNFα levels were measured using HTRF® Human TNFα kit (Cisbio #62TNFPEC) which is a rapid and quantitative sandwich immunoassay based on TR-FRET technology.
Frozen PBMC were quickly thawed, resuspended in culture medium (RPMI 10% inactivated FBS) and viable cells were seeded in 96-well plates (50,000 cells/well). […] After overnight incubation at 37° C., 10 μL of cell supernatant were mixed with 5 μL of each tagged anti-TNFα specific antibody as recommended by the supplier. After 2 hours of incubation at room temperature, the HTRF® signals were measured using a microplate reader (wavelengths: excitation=337 nm, first emission=620 nm, second emission=665 nm).

| SMILES | IC50 |
| --- | --- |
| CC(=O)N1CC(CC(=O)NO)(NS(=O)(=O)c2ccc(OCc3cc(C)nc4ccccc34)cc2)C1 [Example 1, 2-(1-acetyl-3-((4-((2-methylquinolin-4-yl)methoxy)phenyl)sulfonamido)azetidin-3-yl)-N-hydroxyacetamide] | < 50 nM |
| Cc1cc(COc2ccc(S(=O)(=O)NC3(CC(=O)NO)CN(C(=O)OC(C)(C)C)C3)cc2)c2ccccc2n1 [Example 2, Tert-butyl 3-(2-(hydroxyamino)-2-oxoethyl)-3-((4-((2-methylquinolin-4-yl)methoxy)phenyl)sulfonamido)azetidine-1-carboxylate] | < 50 nM |
| CC(=O)N1CC(CC(=O)NO)(N(C)S(=O)(=O)c2ccc(OCc3cc(C)nc4ccccc34)cc2)C1 [Example 3, 2-(1-acetyl-3-((N-methyl-4-((2-methylquinolin-4-yl)methoxy)phenyl)sulfonamido)azetidin-3-yl)-N-hydroxyacetamide] | 500 to 1000 nM |
| Cc1cc(COc2ccc(S(=O)(=O)NC3(CC(=O)NO)CN(C(=O)CC(C)C)C3)cc2)c2ccccc2n1 [Example 4a, N-hydroxy-2-(1-(3-methylbutanoyl)-3-((4-((2-methylquinolin-4-yl)methoxy)phenyl)sulfonamido)azetidin-3-yl)acetamide] | < 50 nM |
| Cc1cc(COc2ccc(S(=O)(=O)NC3(CC(=O)NO)CN(C(=O)C(C)C)C3)cc2)c2ccccc2n1 [Example 4b, N-hydroxy-2-(1-isobutyryl-3-((4-((2-methylquinolin-4-yl)methoxy)phenyl)sulfonamido)azetidin-3-yl)acetamide] | < 50 nM |
| Cc1cc(COc2ccc(S(=O)(=O)NC3(CC(=O)NO)CN(C(=O)C4CC4)C3)cc2)c2ccccc2n1 [Example 4c, 2-(1-(cyclopropanecarbonyl)-3-((4-((2-methylquinolin-4-yl)methoxy)phenyl)sulfonamido)azetidin-3-yl)-N-hydroxyacetamide] | < 50 nM |
| Cc1cc(COc2ccc(S(=O)(=O)NC3(CC(=O)NO)CN(C(=O)C(C)(C)C)C3)cc2)c2ccccc2n1 [Example 4d, N-hydroxy-2-(3-((4-((2-methylquinolin-4-yl)methoxy)phenyl)sulfonamido)-1-pivaloylazetidin-3-yl)acetamide] | < 50 nM |
| CCCC(=O)N1CC(CC(=O)NO)(NS(=O)(=O)c2ccc(OCc3cc(C)nc4ccccc34)cc2)C1 [Example 4e, 2-(1-butyryl-3-((4-((2-methylquinolin-4-yl)methoxy)phenyl)sulfonamido)azetidin-3-yl)-N-hydroxyacetamide] | < 50 nM |
| COCC(=O)N1CC(CC(=O)NO)(NS(=O)(=O)c2ccc(OCc3cc(C)nc4ccccc34)cc2)C1 [Example 4f, N-hydroxy-2-(1-(2-methoxyacetyl)-3-((4-((2-methylquinolin-4-yl)methoxy)phenyl)sulfonamido)azetidin-3-yl)acetamide] | < 50 nM |
| Cc1cc(COc2ccc(S(=O)(=O)NC3(CC(=O)NO)CN(C(=O)C4CCOCC4)C3)cc2)c2ccccc2n1 [Example 4g, N-hydroxy-2-(3-((4-((2-methylquinolin-4-yl)methoxy)phenyl)sulfonamido)-1-(tetrahydro-2H-pyran-4-carbonyl)azetidin-3-yl)acetamide] | < 50 nM |
| Cc1cc(COc2ccc(S(=O)(=O)NC3(CC(=O)NO)CN(C(=O)C4CCCC4)C3)cc2)c2ccccc2n1 [Example 4h, 2-(1-(cyclopentanecarbonyl)-3-((4-((2-methylquinolin-4-yl)methoxy)phenyl)sulfonamido)azetidin-3-yl)-N-hydroxyacetamide] | < 50 nM |
| CCC(CC)C(=O)N1CC(CC(=O)NO)(NS(=O)(=O)c2ccc(OCc3cc(C)nc4ccccc34)cc2)C1 [Example 4i, 2-(1-(2-ethylbutanoyl)-3-((4-((2-methylquinolin-4-yl)methoxy)phenyl)sulfonamido)azetidin-3-yl)-N-hydroxyacetamide] | < 50 nM |
| Cc1cc(COc2ccc(S(=O)(=O)NC3(CC(=O)NO)CN(C(=O)C4CCCCC4)C3)cc2)c2ccccc2n1 [Example 4j, 2-(1-(cyclohexanecarbonyl)-3-((4-((2-methylquinolin-4-yl)methoxy)phenyl)sulfonamido)azetidin-3-yl)-N-hydroxyacetamide] | < 50 nM |
| CCOC(=O)N1CC(CC(=O)NO)(NS(=O)(=O)c2ccc(OCc3cc(C)nc4ccccc34)cc2)C1 [Example 5a, Ethyl 3-(2-(hydroxyamino)-2-oxoethyl)-3-((4-((2-methylquinolin-4-yl)methoxy)phenyl)sulfonamido)azetidine-1-carboxylate] | < 50 nM |
| COC(=O)N1CC(CC(=O)NO)(NS(=O)(=O)c2ccc(OCc3cc(C)nc4ccccc34)cc2)C1 [Example 5b, methyl 3-(2-(hydroxyamino)-2-oxoethyl)-3-((4-((2-methylquinolin-4-yl)methoxy)phenyl)sulfonamido)azetidine-1-carboxylate] | < 50 nM |
| C=CCOC(=O)N1CC(CC(=O)NO)(NS(=O)(=O)c2ccc(OCc3cc(C)nc4ccccc34)cc2)C1 [Example 5c, allyl 3-(2-(hydroxyamino)-2-oxoethyl)-3-((4-((2-methylquinolin-4-yl)methoxy)phenyl)sulfonamido)azetidine-1-carboxylate] | < 50 nM |
| Cc1cc(COc2ccc(S(=O)(=O)NC3(CC(=O)NO)CN(C(=O)OC(C)C)C3)cc2)c2ccccc2n1 [Example 5d, isopropyl 3-(2-(hydroxyamino)-2-oxoethyl)-3-((4-((2-methylquinolin-4-yl)methoxy)phenyl)sulfonamido)azetidine-1-carboxylate] | < 50 nM |
| CC(=O)N1CC(CC(=O)NO)(NS(=O)(=O)c2ccc(OCc3cc(C)nc4c(F)cccc34)cc2)C1 [Example 6, 2-(1-acetyl-3-((4-((8-fluoro-2-methylquinolin-4-yl)methoxy)phenyl)sulfonamido)azetidin-3-yl)-N-hydroxyacetamide] | 50 to 100 nM |
| Cc1cc(COc2ccc(S(=O)(=O)NC3(C(=O)NO)CN(C(=O)C(C)(C)C)C3)cc2)c2ccccc2n1 [Example 7a, N-hydroxy-3-((4-((2-methylquinolin-4-yl)methoxy)phenyl)sulfonamido)-1-pivaloylazetidine-3-carboxamide] | 50 to 100 nM |
| Cc1cc(COc2ccc(S(=O)(=O)NC3(C(=O)NO)CN(C(=O)CC(C)C)C3)cc2)c2ccccc2n1 [Example 7c, N-hydroxy-1-(3-methylbutanoyl)-3-((4-((2-methylquinolin-4-yl)methoxy)phenyl)sulfonamido)azetidine-3-carboxamide] | < 50 nM |
| Cc1cc(COc2ccc(S(=O)(=O)NC3(C(=O)NO)CN(C(=O)C4CCOCC4)C3)cc2)c2ccccc2n1 [Example 7d, N-hydroxy-3-((4-((2-methylquinolin-4-yl)methoxy)phenyl)sulfonamido)-1-(tetrahydro-2H-pyran-4-carbonyl)azetidine-3-carboxamide] | < 50 nM |
| Cc1cc(COc2ccc(S(=O)(=O)NC3(C(=O)NO)CN(C(=O)C4CCC4)C3)cc2)c2ccccc2n1 [Example 7e, 1-(cyclobutanecarbonyl)-N-hydroxy-3-((4-((2-methylquinolin-4-yl)methoxy)phenyl)sulfonamido)azetidine-3-carboxamide] | < 50 nM |
| CCC(CC)C(=O)N1CC(NS(=O)(=O)c2ccc(OCc3cc(C)nc4ccccc34)cc2)(C(=O)NO)C1 [Example 7f, 1-(2-ethylbutanoyl)-N-hydroxy-3-((4-((2-methylquinolin-4-yl)methoxy)phenyl)sulfonamido)azetidine-3-carboxamide] | 50 to 100 nM |
| CCC(=O)N1CC(NS(=O)(=O)c2ccc(OCc3cc(C)nc4ccccc34)cc2)(C(=O)NO)C1 [Example 7g, N-hydroxy-3-((4-((2-methylquinolin-4-yl)methoxy)phenyl)sulfonamido)-1-propionylazetidine-3-carboxamide] | < 50 nM |
| CCCC(=O)N1CC(NS(=O)(=O)c2ccc(OCc3cc(C)nc4ccccc34)cc2)(C(=O)NO)C1 [Example 7h, 1-butyryl-N-hydroxy-3-((4-((2-methylquinolin-4-yl)methoxy)phenyl)sulfonamido)azetidine-3-carboxamide] | < 50 nM |
| CCCCC(=O)N1CC(NS(=O)(=O)c2ccc(OCc3cc(C)nc4ccccc34)cc2)(C(=O)NO)C1 [Example 7i, N-hydroxy-3-((4-((2-methylquinolin-4-yl)methoxy)phenyl)sulfonamido)-1-pentanoylazetidine-3-carboxamide] | < 50 nM |
| CC(=O)N1CC(NS(=O)(=O)c2ccc(OCc3cc(C)nc4ccccc34)cc2)(C(=O)NO)C1 [Example 8, 1-acetyl-N-hydroxy-3-((4-((2-methylquinolin-4-yl)methoxy)phenyl)sulfonamido) azetidine-3-carboxamide] | < 50 nM |
| Cc1cc(COc2ccc(S(=O)(=O)NC3(CC(=O)NO)CN(C(=O)N4CCCCC4)C3)cc2)c2ccccc2n1 [Example 9, N-hydroxy-2-(3-((4-((2-methylquinolin-4-yl)methoxy)phenyl)sulfonamido)-1-(piperidine-1-carbonyl)azetidin-3-yl)acetamide] | < 50 nM |
| Cc1cc(COc2ccc(S(=O)(=O)NC3(CC(=O)NO)CN(C(=O)CN4CCCCC4)C3)cc2)c2ccccc2n1 [Example 12, N-hydroxy-2-(3-((4-((2-methylquinolin-4-yl)methoxy)phenyl)sulfonamido)-1-(2-(piperidin-1-yl)acetyl)azetidin-3-yl)acetamide] | < 50 nM |
| Cc1cc(COc2ccc(S(=O)(=O)NC3(CC(=O)NO)CN(C(=O)CC4CCC4)C3)cc2)c2ccccc2n1 [Example 13, 2-(1-(2-cyclobutylacetyl)-3-((4-((2-methylquinolin-4-yl)methoxy)phenyl)sulfonamido)azetidin-3-yl)-N-hydroxyacetamide] | < 50 nM |
